# Patent publication US7507860B2 (Pfizer Inc., priority 2004, dated 2009)
# Where a chain is given by its changes, count along the chain named. Read-outs that look alike come from different tables or passages of the source.
# Tests used:
# [1] = target: T1, human androgen receptor (hAR) (Homo sapiens, UniProt P10275); assay: Competitive binding analysis on baculovirus/Sf9 generated hAR extracts with 3H-DHT tracer; settings: hAR extract, 1 nM 3H-DHT, one hour at 4° C; mean of multiple tests; read-out: AR Binding IC50
# T1 construct: made in house; host or cells: baculovirus/Sf9 insect cells (crude extract)
# T1 sequence (P10275 1-920): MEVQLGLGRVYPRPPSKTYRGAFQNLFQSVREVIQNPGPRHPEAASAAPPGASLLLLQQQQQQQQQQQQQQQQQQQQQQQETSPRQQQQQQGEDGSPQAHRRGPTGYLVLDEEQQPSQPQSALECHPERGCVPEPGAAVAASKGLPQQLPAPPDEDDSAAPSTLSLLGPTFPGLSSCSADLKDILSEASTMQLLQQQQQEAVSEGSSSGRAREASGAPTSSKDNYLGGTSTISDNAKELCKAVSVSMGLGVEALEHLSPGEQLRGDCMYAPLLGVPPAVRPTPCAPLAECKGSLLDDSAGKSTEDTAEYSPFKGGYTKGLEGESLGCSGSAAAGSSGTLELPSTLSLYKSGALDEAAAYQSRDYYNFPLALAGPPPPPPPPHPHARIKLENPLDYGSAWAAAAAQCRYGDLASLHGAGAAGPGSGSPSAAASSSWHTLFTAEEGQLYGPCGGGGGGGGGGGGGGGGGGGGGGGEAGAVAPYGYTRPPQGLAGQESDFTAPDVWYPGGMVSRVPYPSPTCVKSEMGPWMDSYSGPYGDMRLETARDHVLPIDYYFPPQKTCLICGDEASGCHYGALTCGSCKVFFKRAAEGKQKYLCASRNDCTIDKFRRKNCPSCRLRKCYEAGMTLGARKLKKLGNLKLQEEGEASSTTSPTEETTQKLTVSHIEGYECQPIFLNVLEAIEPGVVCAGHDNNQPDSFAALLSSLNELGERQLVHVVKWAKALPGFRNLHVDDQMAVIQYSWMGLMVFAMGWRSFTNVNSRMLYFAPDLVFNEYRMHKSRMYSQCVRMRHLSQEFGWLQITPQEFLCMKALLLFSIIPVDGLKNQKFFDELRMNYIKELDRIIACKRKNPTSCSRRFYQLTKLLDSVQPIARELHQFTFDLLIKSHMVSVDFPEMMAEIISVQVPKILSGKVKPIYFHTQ
# Method: The compounds of Formula I have affinity for the androgen receptor. […] The description below describes how the assay was carried out.
# Competitive binding analysis was performed on baculovirus/Sf9 generated hAR extracts in the presence or absence of different concentrations of test agent and a fixed concentration of ^3H-dihydrotestosterone (^3H-DHT) as tracer. This binding assay method is a modification of a protocol previously described (Liao S., et. al. J. Steroid Biochem. 20:11-17 1984). Briefly, progressively decreasing concentrations of compounds are incubated in the presence of hAR extract (Chang et al. P.N.A.S. Vol. 89, pp. […], 1992), hydroxylapatite, and 1 nM^3H-DHT for one hour at 4° C. Subsequently, the binding reactions are washed three times to completely remove excess unbound ^3H-DHT. hAR bound ^3H-DHT levels are determined in the presence of compounds (=i.e competitive binding) and compared to levels bound when no competitor is present (=i.e. maximum binding). Compound binding affinity to the hAR is expressed as the concentration of compound at which one half of the maximum binding is inhibited. Table II below provides the results that were obtained for selected compounds (reported data is the mean of multiple tests as shown below)
# androgen receptor = target: T2, androgen receptor (Homo sapiens, UniProt P10275); assay: AR antagonist cell assay (MDA-MB453-MMTV clone 54-19 luciferase reporter, 100 pM DHT); type: cell-based
# T2 sequence (P10275 1-920 Q868H): T1 sequence (P10275 1-920) with Q868H
# Method: The compounds ability to antagonize the effects of androgen on the androgen receptor were determined in a whole cell assay as described immediately below.
# Experimental Procedure for AR Antagonist Cell Assay
# This cell line is a stable transfected cell line with MDA-MB453 cell background (a human breast tumor cell line expressing androgen receptor). A MMTV minimal promoter containing ARE was first cloned in front of a firefly luciferase reporter gene. Then the cascade was cloned into transfection vector pUV120puro. […] Puromycin resistant stable cell line was selected. Cell Culture Media and Reagents:
# Plating medium: DMEM (phenol red free), 10% charcoal treated HyClone serum, 1% L-glutamine
# Assay medium: DMEM (phenol red free), 1% charcoal treated HyClone serum, 1% L-glutamine, and 1% penicillin/streptomycin
# • 1. Cells are maintained in culture medium, splitting cells when they reach 80-90% confluence • 2. To test compounds, 10,000 cells/well are plated to opaque 96 cell culture plate in 100 ul/well plating medium, culture for overnight at 37° C. in cell culture incubator • 3. […] Add 10 ul/well freshly prepared DHT (final concentration at 100 pM) to each well, incubate at 37° C. for 17 hr (overnight) • 5.
# The results are reported as the mean of multiple tests as described below (the numbers of tests are indicated in the footnote). N.D. denotes that the compound was not tested.
# [2] = MDA-MB453-MMTV clone 54-19, inhibition of 100 pM DHT induction, 17 hr; mean of multiple tests; read-out: AR Cell IC50
Structure (SMILES),IC50 [1],"IC50 (androgen receptor; read-out: AR Cell IC50; MDA-MB453-MMTV clone 54-19, inhibition of 100 pM DHT induction, 17 hr; mean of multiple tests)",IC50 (androgen receptor; [2])
"CC(C)CC(Oc1ccc(C#N)c(C(F)(F)F)c1)C(=O)N[C@H](C)c1ccc(O)cc1 (stereo in doubt) [Example 117, 2-(4-Cyano-3-trifluoromethyl-phenoxy)-4-methyl-pentanoic acid [1-(4-hydroxy-phenyl)-ethyl]-amide]",0.114 µM,0.019 µM,–
"CCCC(Oc1ccc(C#N)c(C(F)(F)F)c1)C(=O)N[C@@H](C)c1ccc(O)cc1 (stereo in doubt) [Example 118, 2-(4-Cyano-3-trifluoromethyl-phenoxy)-pentanoic acid [1-(4-hydroxy-phenyl)-ethyl]-amide]",1.01 µM,–,0.589 µM
"CCCC(Oc1ccc(C#N)c(C(F)(F)F)c1)C(=O)N[C@H](C)c1ccc(O)cc1 (stereo in doubt) [Example 119, 2-(4-Cyano-3-trifluoromethyl-phenoxy)-pentanoic acid [1-(4-hydroxy-phenyl)-ethyl]-amide]",0.086 µM,–,0.117 µM
"CC(C)CC(Oc1ccc(C#N)c(C(F)(F)F)c1)C(=O)N[C@@H](C)c1ccc(O)cc1 (stereo in doubt) [Example 120, 2-(4-Cyano-3-trifluoromethyl-phenoxy)-4-methyl-pentanoic acid [1-(4-hydroxy-phenyl)-ethyl]-amide]",0.098 µM,–,0.044 µM
"COc1ccc([C@H](C)NC(=O)C(CC(C)C)Oc2ccc(C#N)c(C(F)(F)F)c2)cc1 (stereo in doubt) [Example 121, 2-(4-Cyano-3-trifluoromethyl-phenoxy)-4-methyl-pentanoic acid [1-(4-methoxy-phenyl)-ethyl]-amide]",0.145 µM,–,0.157 µM
"CCCC(Oc1ccc(C#N)c(C(F)(F)F)c1)C(=O)N[C@H](C)c1ccc(OC)cc1 (stereo in doubt) [Example 123, 2-(4-Cyano-3-trifluoromethyl-phenoxy)-pentanoic acid [1-(4-methoxy-phenyl)-ethyl]-amide]",0.653 µM,–,0.681 µM
"CC(C)CC(Oc1ccc(C#N)c(C(F)(F)F)c1)C(=O)NC(C)C (centres unmarked) [Example 2, 2-(4-Cyano-3-trifluoromethyl-phenoxy)-4-methyl-pentanoic acid isopropylamide]",0.064 µM,–,0.142 µM
"CCCC(Oc1ccc(C#N)c(C(F)(F)F)c1)C(=O)NCC (centres unmarked) [Example 5, 2-(4-Cyano-3-trifluoromethyl-phenoxy)-pentanoic acid ethylamide]",0.277 µM,–,> 1 µM
"CC(C)CC(Oc1ccc(C#N)c(C(F)(F)F)c1)C(=O)NCC1CC1 (centres unmarked) [Example 7, 2-(4-Cyano-3-trifluoromethyl-phenoxy)-4-methyl-pentanoic acid cyclopropylmethyl-amide]",0.107 µM,–,0.661 µM
"CC(C)CNC(=O)C(CC(C)C)Oc1ccc(C#N)c(C(F)(F)F)c1 (centres unmarked) [Example 8, 2-(4-Cyano-3-trifluoromethyl-phenoxy)-4-methyl-pentanoic acid isobutyl-amide]",0.058 µM,–,0.534 µM
"COc1ccc(CCNC(=O)C(CC(C)C)Oc2ccc(C#N)c(C(F)(F)F)c2)cc1 (centres unmarked) [Example 9, 2-(4-Cyano-3-trifluoromethyl-phenoxy)-4-methyl-pentanoic acid [2-(4-methoxyphenyl)-ethyl]-amide]",0.163 µM,–,> 1 µM
"CC(C)CC(Oc1ccc(C#N)c(C(F)(F)F)c1)C(=O)NCCOc1ccccc1 (centres unmarked) [Example 10, 2-(4-Cyano-3-trifluoromethyl-phenoxy)-4-methyl-pentanoic acid (2-phenoxyethyl)-amide]",0.091 µM,–,> 1 µM
"CC(C)CC(Oc1ccc(C#N)c(C(F)(F)F)c1)C(=O)NCc1ccco1 (centres unmarked) [Example 11, 2-(4-Cyano-3-trifluoromethyl-phenoxy)-4-methyl-pentanoic acid (furan-2-yl-methyl)-amide]",0.172 µM,–,> 1 µM
"CC(C)CC(Oc1ccc(C#N)c(C(F)(F)F)c1)C(=O)NCc1cccs1 (centres unmarked) [Example 12, 2-(4-Cyano-3-trifluoromethyl-phenoxy)-4-methyl-pentanoic acid (thiophen-2-yl-methyl)-amide]",0.086 µM,–,> 1 µM
"CC(C)CC(Oc1ccc(C#N)c(C(F)(F)F)c1)C(=O)NC(C)c1cccs1 (centres unmarked) [Example 13, 2-(4-Cyano-3-trifluoromethyl-phenoxy)-4-methyl-pentanoic acid (1-thiophen-2-ylethyl)-amide]",0.24 µM,–,0.398 µM
"CC(C)CC(Oc1ccc(C#N)c(C(F)(F)F)c1)C(=O)NC(C)c1cccnc1 (centres unmarked) [Example 15, 2-(4-Cyano-3-trifluoromethyl-phenoxy)-4-methyl-pentanoic acid (1-pyridin-3-ylethyl)-amide]",0.309 µM,–,> 1 µM
"CCCC(Oc1ccc(C#N)c(C(F)(F)F)c1)C(=O)NC(C)Cc1ccsc1 (centres unmarked) [Example 18, 2-(4-Cyano-3-trifluoromethyl-phenoxy)-pentanoic acid (1-methyl-2-thiophen-3-ylethyl)-amide]",0.222 µM,–,0.815 µM
"CC(C)CC(Oc1ccc(C#N)c(C(F)(F)F)c1)C(=O)NCc1cccnc1 (centres unmarked) [Example 19, 2-(4-Cyano-3-trifluoromethyl-phenoxy)-4-methyl-pentanoic acid (pyridin-3-yl-methyl)-amide]",0.131 µM,–,> 1 µM
"CC(C)CCNC(=O)C(CC(C)C)Oc1ccc(C#N)c(C(F)(F)F)c1 (centres unmarked) [Example 22, 2-(4-Cyano-3-trifluoromethyl-phenoxy)-4-methyl-pentanoic acid (3-methyl-butyl)amide]",0.178 µM,–,> 1 µM
